Values after ≈ are worked out from the molar mass of the structure shown.

This assay concerns Mycobacterium tuberculosis. The assay is described as follows: Antitubercular activity against Mycobacterium tuberculosis H37Ra ATCC 25177 assessed as growth inhibition after 8 days by XTT reduction menadione assay. The assay is classed as functional, organism-based. The note with it: H37Ra ATCC 25177, 192 h. A general note: Tetrazolium dyes change colour on reduction, which living cells bring about.

As usually defined, the IC50 is the point on the concentration scale where inhibition reaches its midpoint. On to `O=C(CC1OC(=O)c2ccccc21)c1ccco1` (centres undefined), for which the half-maximal inhibitory concentration (IC50) stood at 0.81 µg/mL (≈ 3.34 µM). Regarding `O=C(CC1OC(=O)c2ccccc21)c1ccc(Cl)cc1` (centres undefined), the half-inhibitory concentration (IC50) came to 0.97 µg/mL (≈ 3.38 µM). Usually IC90 stands for the concentration needed for an effect of 90%. For `NNC(=O)c1ccncc1` [ISONIAZID], the 90% effect concentration (IC90) came out at 0.125 µg/mL (≈ 0.911 µM). Consider `O=C(CC1OC(=O)c2ccccc21)c1cccs1` (centres undefined), for which the concentration for half-maximal inhibition (IC50) is 1.24 µg/mL (≈ 4.8 µM).

For the origin of these results see ChEMBL document CHEMBL2311395, “One pot solvent free synthesis and in vitro antitubercular screening of 3-Aracylphthalides against Mycobacterium tuberculosis” (Bioorg Med Chem Lett, 2013).
